Measured values: patent US20050276862A1, “Iron sequestering antimicrobial composition” (priority 2004, published 2005)

Assay: Log stability constants of ligands for metal ions (literature)
Conditions: Fe(III) minus Ca
From the text: A measure of the “affinity” of metal-ion sequestrants for various metal-ions is given by the stability constant (also often referred to as critical stability constants, complex formation constants, equilibrium constants, or formation constants) of that sequestrant for a given metal-ion. […] The ability of a specific molecule or ligand to sequester a metal-ion may depend also upon the pH, the concentrations of interfering ions, and the rate of complex formation (kinetics). Generally, however, the greater the stability constant, the greater the binding affinity for that particular metal-ion. Often the stability constants are expressed as the natural logarithm of the stability constant. Herein the stability constant for the reaction of a metal-ion (M) and a sequestrant or ligand (L) is defined as follows: M+n L⇄MLn
where the stability constant is βn=[MLn]/[M][L]^n, wherein [MLn] is the concentration of “complexed” metal-ion, [M] is the concentration of free (uncomplexed) metal-ion and [L] is the concentration of free ligand. The log of the stability constant is log βn, and n is the number of ligands which coordinate with the metal. It follows from the above equation that if βn is very large, the concentration of “free” metal-ion will be very low. […]

## O=C(O)CN(CCN(CC(=O)O)CC(=O)O)CCN(CC(=O)O)CC(=O)O [DTPA, diethylenetriaminepentaacetic acid]
  difference between the log stability constants (specificity): 17.2
